Data: patent US20240268388A1, “AGRICULTURAL AND HORTICULTURAL FUNGICIDAL COMPOSITION” (NIPPON SODA CO., LTD., priority 2021, published 2024)

Assays:
[1] = test system: wheat leaf blight pathogen (Septoria tritici); test: Fungicidal test for wheat leaf blight (microplate, turbidity at 405 nm); assay type: cell-based; conditions: for inhibition at 6.3 ppm / inhibition at 12.5 ppm / inhibition at 25 ppm / inhibition at 50 ppm / inhibition at 100 ppm: component (I) alone
Procedure: Compounds of component (I) and component (II) were dissolved in dimethyl sulfoxide at 10,000 ppm and diluted with water to the prescribed concentration to prepare a chemical agent solution. A mixture of the prescribed concentration of the chemical agent solution, wheat leaf blight pathogen (Septoria tritici) conidia, and malt extract was prepared on a microplate and incubated at 20° C. in the dark for 3 days. The turbidity at a wavelength of 405 nm was measured with a microplate reader, and the growth of wheat leaf blight pathogen was compared with that of no treatment control to determine the growth inhibition rate. The results are shown in Tables 2 to 7, along with the expected values calculated as below.
Each expected value was calculated from the fungicidal efficacy of a single application of the compound of component (I) and the fungicidal efficacy of a single application of compound of component (II) by using Colby's equation (S. R. Colby, Calculating synergistic and antagonistic responses of herbicide combinations, Weeds, 15, 20-22 pp (1967)).
[formula] • where E represents the expected value of the growth inhibition rate (%) for the composition containing component (I) and component (II), M represents the growth inhibition rate (%) when the component (I) is used alone, and N represents the growth inhibition rate (%) when the component (II) is used alone. When the measured growth inhibition rate (%) for the composition containing component (I) and component (II) is greater than the expected value E, the composition containing components (I) and component (II) should exert a synergistic effect.

[2] = test system: soybean rust pathogen (Phakopsora pachyrhizi); test: Soybean rust control test (leaf discs); assay type: in vivo
Procedure: Compounds of component (I) and component (II) were dissolved in dimethyl sulfoxide and diluted with water to the prescribed concentration to prepare a chemical agent solution. A mixture of the prescribed concentration of the chemical agent solution and sterile water was prepared on a microplate, and leaf discs cut from soybean leaves were floated on the microplate. Uredospores of soybean rust pathogen (Phakopsora pachyrhizi) were inoculated and incubated at 25° C. for 9 days. The area percentage of lesions was determined by observing uredospore-forming lesions on the leaf discs, and the control value was calculated. The control value was calculated by the following formula:
Control value (%)=100−{Area percentage of lesions in treatment plot/Area percentage of lesions in untreatment plot}×100.
The results are shown in Tables 8 to 18, along with the expected values calculated as below. Each expected values was calculated from the fungicidal efficacy of a single application of compound of component (I) and the fungicidal efficacy of a single application of compound of component (II) by using Colby's equation:
[formula] • where E represents the expected value of the control value for the composition containing component (I) and component (II), M represents the control value (%) when the component (I) is used alone, and N represents the control value (%) when the component (II) is used alone. When the measured control value for the composition containing component (I) and component (II) is greater than the expected value E, the composition containing component (I) and composition (II) should exert a synergistic effect.

[3] = Table 15, component (II) alone (component (I): None): Azoxystrobin 0.0001, Inpyrfluxam 0.000025, Chlorothalonil 0.0063, Difenoconazole 0.000025, Cyproconazole 0.000025, Tebuconazole 0.000025, Trifloxystrobin 0.0001, Pyraclostrobin 0.0001, Fluazinam 0.0063, Fluxapyroxad 0.000025, Prothioconazole 0.000025, Florylpicoxamid 0.0001, Benzovindiflupyr 0.000025, Mancozeb 0.0063 ppm
[4] = Table 18, component (II) alone (component (I): None): Azoxystrobin 0.0001, Inpyrfluxam 0.000025, Chlorothalonil 0.0063, Difenoconazole 0.000025, Cyproconazole 0.000025, Tebuconazole 0.000025, Trifloxystrobin 0.0001, Pyraclostrobin 0.0001, Fluazinam 0.0063, Fluxapyroxad 0.000025, Prothioconazole 0.000025, Florylpicoxamid 0.0001, Benzovindiflupyr 0.000025, Mancozeb 0.0063 ppm
[5] = Zymoseptoria tritici, component (II) alone, 0.02 ppm, read-out: growth inhibition rate
[6] = Zymoseptoria tritici, component (II) alone, read-out: growth inhibition rate
[7] = Zymoseptoria tritici, component (II) alone, 0.04 ppm, read-out: growth inhibition rate
[8] = Table 14, component (II) alone (component (I): None): Inpyrfluxam 0.00025, Chlorothalonil 0.006, Thiophanate-methyl 0.0001, Tebuconazole 0.000025, Trifloxystrobin 0.0001, Fluazinam 0.006, Prothioconazole 0.000025, Florylpicoxamid 0.0001, Metominostrobin 0.0004 ppm
[9] = Table 16, component (II) alone (component (I): None): Inpyrfluxam 0.000025, Chlorothalonil 0.006, Thiophanate-methyl 0.0001, Tebuconazole 0.000025, Trifloxystrobin 0.0001, Fluazinam 0.006, Prothioconazole 0.000025, Florylpicoxamid 0.0001, Metominostrobin 0.0004 ppm
[10] = Table 17, component (II) alone (component (I): None): Inpyrfluxam 0.000026, Chlorothalonil 0.02, Thiophanate-methyl 0.0004, Tebuconazole 0.0001, Trifloxystrobin 0.0001, Fluazinam 0.006, Prothioconazole 0.000025, Florylpicoxamid 0.0001, Metominostrobin 0.0004 ppm
[11] = Zymoseptoria tritici, read-out: growth inhibition rate
[12] = component (I) alone, 0.0063 ppm
[13] = Zymoseptoria tritici, component (II) alone, 0.25 ppm, read-out: growth inhibition rate
[14] = Zymoseptoria tritici, component (II) alone, 16 ppm, read-out: growth inhibition rate
[15] = Zymoseptoria tritici, component (II) alone, 1 ppm, read-out: growth inhibition rate
[16] = Zymoseptoria tritici, component (II) alone, 0.004 ppm, read-out: growth inhibition rate

`Cn1cc(C(=O)Nc2cccc3c2[C@@H]2CC[C@H]3C2=C(Cl)Cl)c(C(F)F)n1` (racemic) [Benzovindiflupyr, benzovindiflupyr, reference compound] was tested, and the growth inhibition rate ([1]; component (II) alone, 0.01 ppm) was 48%, the growth inhibition rate ([1]; component (II) alone, 0.04 ppm) was 65% and the control value [2, 3] was 50%. For the same compound, the control value [2, 4] was 50%.

In the case of `Fc1ccc([C@]2(Cn3cncn3)O[C@H]2c2ccccc2Cl)cc1` (racemic) [Epoxiconazole, epoxiconazole], the inhibition at 0.02 ppm [1, 5] is reported as 27% and the inhibition at 64 ppm [1, 6] is reported as 94%.

`CO/C=C(/C(=O)OC)c1ccccc1Oc1cc(Oc2ccccc2C#N)ncn1` [Azoxystrobin, azoxystrobin, reference compound] was tested, and the growth inhibition rate ([1]; component (II) alone, 0.06 ppm) was 10%, the growth inhibition rate ([1]; component (II) alone, 1 ppm) was 10% and the control value [2, 3] was 33%. The control value [2, 4] was 0%.

`Cn1cc(C(=O)Nc2ccc(F)cc2-c2ccc(Cl)c(Cl)c2)c(C(F)F)n1` [Bixafen, bixafen] was tested, and the growth inhibition rate ([1]; component (II) alone, 0.004 ppm) was 27%.

In the case of `N#Cc1c(Cl)c(Cl)c(Cl)c(C#N)c1Cl` [Chlorothalonil, chlorothalonil, reference compound], the inhibition at 0.001 ppm ([1]; Zymoseptoria tritici, component (II) alone, 0.001 ppm, read-out: growth inhibition rate) is reported as 8%, the inhibition at 0.02 ppm [1, 5] is reported as 2% and the inhibition at 0.04 ppm [1, 7] is reported as 9%. It also gave a control value [2, 8] of 44%, a control value [2, 3] of 33% and a control value [2, 9] of 44%. The control value [2, 10] was 75% and the control value [2, 4] was 0%.

For `CCON=C1CN(C(=O)Cc2ccc(-c3noc(C(F)(F)F)n3)cc2)C1` [Compound 1], the inhibition at 6.3 ppm [1, 11] was 44%, the inhibition at 12.5 ppm [1, 11] was 58% and the inhibition at 25 ppm [1, 11] was 70%. It also gave an inhibition at 50 ppm [1, 11] of 82%, an inhibition at 100 ppm [1, 11] of 90% and a control value [2, 12] of 12%. It also gave a control value ([2]; component (I) alone, 0.025 ppm) of 48%, a control value ([2]; component (I) alone, 0.1 ppm) of 75% and a control value ([2]; component (I) alone, 0.4 ppm) of 99%.

For `O=C(Cc1ccc(-c2noc(C(F)(F)F)n2)cc1)N1CCC(=NOC2CCCCO2)CC1` (stereo not drawn) [Compound 2], the inhibition at 6.3 ppm [1, 11] was 34%, the inhibition at 12.5 ppm [1, 11] was 46% and the inhibition at 25 ppm [1, 11] was 52%. It also gave an inhibition at 50 ppm [1, 11] of 59% and an inhibition at 100 ppm [1, 11] of 62%.

`O=C(Cc1ccc(-c2noc(C(F)(F)F)n2)cc1)N1CC(=NOCC(F)F)C1` [Compound 4] was tested, and the inhibition at 6.3 ppm [1, 11] was 36%, the inhibition at 12.5 ppm [1, 11] was 49% and the inhibition at 25 ppm [1, 11] was 75%. It also gave an inhibition at 50 ppm [1, 11] of 99%, an inhibition at 100 ppm [1, 11] of 100% and a control value [2, 12] of 18%. It also gave a control value ([2]; component (I) alone, 0.025 ppm) of 28%, a control value ([2]; component (I) alone, 0.1 ppm) of 67% and a control value ([2]; component (I) alone, 0.4 ppm) of 97%.

In the case of `O=S(=O)([O-])[O-].[Cu+2]` [Copper sulfate, copper sulfate], the growth inhibition rate ([1]; component (II) alone, 0.25 ppm) is reported as 8%, the growth inhibition rate ([1]; component (II) alone, 1 ppm) is reported as 24% and the growth inhibition rate ([1]; component (II) alone, 16 ppm) is reported as 73%.

`Cc1ccc(-c2c(Cl)nc(C#N)n2S(=O)(=O)N(C)C)cc1` [Cyazofamid, cyazofamid] gave an inhibition at 0.25 ppm [1, 13] of 0%, an inhibition at 4 ppm [1, 6] of 6% and an inhibition at 16 ppm [1, 14] of 4%. It also gave an inhibition at 64 ppm [1, 6] of 27%.

Work on `CC(C1CC1)C(O)(Cn1cncn1)c1ccc(Cl)cc1` (stereo not drawn) [Cyproconazole, cyproconazole, reference compound] yielded an inhibition at 0.25 ppm [1, 13] of 15%, an inhibition at 1 ppm [1, 15] of 1% and a control value [2, 3] of 33%. The control value [2, 4] was 0% and the control value ([2]; component (II) alone, 0.0001 ppm) was 88%.

Work on `CC1COC(Cn2cncn2)(c2ccc(Oc3ccc(Cl)cc3)cc2Cl)O1` (stereo not drawn) [Difenoconazole, difenoconazole] yielded an inhibition at 0.004 ppm [1, 16] of 75%, an inhibition at 0.04 ppm [1, 7] of 75% and an inhibition at 4 ppm [1, 6] of 85%. The inhibition at 16 ppm [1, 14] was 83%, the inhibition at 0.0002 ppm ([1]; Zymoseptoria tritici, component (II) alone, .0002 ppm (also printed 0002), read-out: growth inhibition rate) was 69% and the control value [2, 3] was 75%. The control value [2, 4] was 0%.

Compound `O=[N+]([O-])c1cc(C(F)(F)F)c(Cl)c([N+](=O)[O-])c1Nc1ncc(C(F)(F)F)cc1Cl` [Fluazinam, fluazinam, reference compound] has an inhibition at 0.004 ppm [1, 16] of 0%, a control value [2, 8] of 16% and a control value [2, 3] of 0%. It also gave a control value [2, 9] of 16%, a control value [2, 10] of 16% and a control value [2, 4] of 50%.

In the case of `Cn1cc(C(=O)Nc2ccccc2-c2cc(F)c(F)c(F)c2)c(C(F)F)n1` [Fluxapyroxad, fluxapyroxad], the growth inhibition rate ([1]; component (II) alone, 0.001 ppm) is reported as 32%, the growth inhibition rate ([1]; component (II) alone, 0.02 ppm) is reported as 63% and the growth inhibition rate ([1]; component (II) alone, 1 ppm) is reported as 86%. For the same compound, the control value [2, 3] was 0% and the control value [2, 4] was 75%.

Work on `CO/C=C(/C(=O)OC)c1ccccc1COc1cccc(C(F)(F)F)n1` [Picoxystrobin, picoxystrobin] yielded a growth inhibition rate ([1]; component (II) alone, 0.02 ppm) of 2%, a growth inhibition rate ([1]; component (II) alone, 0.06 ppm) of 3% and a growth inhibition rate ([1]; component (II) alone, 0.25 ppm) of 8%. The growth inhibition rate ([1]; component (II) alone, 1 ppm) was 8%.

`OC(Cc1ccccc1Cl)(Cn1nc[nH]c1=S)C1(Cl)CC1` (stereo not drawn) [Prothioconazole, prothioconazole, reference compound] was tested, and the inhibition at 0.02 ppm [1, 5] was 10%, the inhibition at 0.25 ppm [1, 13] was 7% and the inhibition at 1 ppm [1, 15] was 8%. The control value [2, 8] was 44%, the control value [2, 3] was 33% and the control value [2, 9] was 44%. It also gave a control value [2, 10] of 44% and a control value [2, 4] of 50%.

`COC(=O)N(OC)c1ccccc1COc1ccn(-c2ccc(Cl)cc2)n1` [Pyraclostrobin, pyraclostrobin, reference compound] was tested, and the inhibition at 0.02 ppm [1, 5] was 24%, the inhibition at 0.25 ppm [1, 13] was 86% and the control value [2, 3] was 33%. For the same compound, the control value [2, 4] was 0%.

For `CC(C)(C)C(O)(CCc1ccc(Cl)cc1)Cn1cncn1` (stereo not drawn) [Tebuconazole, tebuconazole, reference compound], the inhibition at 0.016 ppm ([1]; Zymoseptoria tritici, component (II) alone, 0.016 ppm, read-out: growth inhibition rate) was 0%, the inhibition at 0.063 ppm ([1]; Zymoseptoria tritici, component (II) alone, 0.063 ppm, read-out: growth inhibition rate) was 33% and the inhibition at 64 ppm [1, 6] was 76%. It also gave a control value [2, 8] of 44%, a control value [2, 3] of 33% and a control value [2, 9] of 44%. The control value [2, 10] was 86% and the control value [2, 4] was 33%.

`CON=C(C(=O)OC)c1ccccc1CON=C(C)c1cccc(C(F)(F)F)c1` [Trifloxystrobin, trifloxystrobin, reference compound] gave an inhibition at 0.25 ppm [1, 13] of 21%, a control value [2, 8] of 16% and a control value [2, 3] of 0%. It also gave a control value [2, 9] of 16%, a control value [2, 10] of 16% and a control value [2, 4] of 75%. The control value ([2]; component (II) alone, 0.0004 ppm) was 50%.

`CCCOC/C(=N\c1ccc(Cl)cc1C(F)(F)F)n1ccnc1` [Triflumizole, triflumizole] was tested, and the inhibition at 0.06 ppm ([1]; Zymoseptoria tritici, component (II) alone, 0.06 ppm, read-out: growth inhibition rate) was 12% and the inhibition at 0.25 ppm [1, 13] was 11%.
